These results are taken from ChEMBL document CHEMBL1201862, “PubChem BioAssay data set” (2004).

Experiment [1] is described as follows: C. albicans growth with fluconazole, confirmation, fluorescence, retest (AID 2467). It counts as functional, cell-based.
The test system of experiment [2] is BJ. The experiment is described as follows: cytotoxicity toward Ras-transformed BJeLR fibroblasts, dose response, cell-based, alamar blue fluorescence, cherrypicked samples (AID 2631).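 Also: confirmatory dose-response assay in RAS-dependent BJ fibroblasts engineered with TERT, LT and ST, with cytotoxicity read by fluorescence.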 It counts as functional. The following applies: Homo sapiens. For orientation: The colour change of resazurin is a common sign of viable cells or microbes.
Experiment [3] is described as follows: Luminescence-based counterscreen assay for KLF5 inhibitors: dose response cell-based high throughput screening assay to identify cytotoxic compounds using the IEC-6 intestinal epithelial cell line. [Related pubchem assays: 1700 (Primary screen.), 1834 (Confirmation screen.), 1858 (Summary AID.), 1905 (Counterscreen.)]. It counts as functional. Background: A counterscreen serves to expose hits that act by an unwanted route or on another target.

The target in experiment [4] is T1, Protein RecA (Mycobacterium tuberculosis, UniProt P9WHJ3).
T1 sequence (P9WHJ3 whole entry): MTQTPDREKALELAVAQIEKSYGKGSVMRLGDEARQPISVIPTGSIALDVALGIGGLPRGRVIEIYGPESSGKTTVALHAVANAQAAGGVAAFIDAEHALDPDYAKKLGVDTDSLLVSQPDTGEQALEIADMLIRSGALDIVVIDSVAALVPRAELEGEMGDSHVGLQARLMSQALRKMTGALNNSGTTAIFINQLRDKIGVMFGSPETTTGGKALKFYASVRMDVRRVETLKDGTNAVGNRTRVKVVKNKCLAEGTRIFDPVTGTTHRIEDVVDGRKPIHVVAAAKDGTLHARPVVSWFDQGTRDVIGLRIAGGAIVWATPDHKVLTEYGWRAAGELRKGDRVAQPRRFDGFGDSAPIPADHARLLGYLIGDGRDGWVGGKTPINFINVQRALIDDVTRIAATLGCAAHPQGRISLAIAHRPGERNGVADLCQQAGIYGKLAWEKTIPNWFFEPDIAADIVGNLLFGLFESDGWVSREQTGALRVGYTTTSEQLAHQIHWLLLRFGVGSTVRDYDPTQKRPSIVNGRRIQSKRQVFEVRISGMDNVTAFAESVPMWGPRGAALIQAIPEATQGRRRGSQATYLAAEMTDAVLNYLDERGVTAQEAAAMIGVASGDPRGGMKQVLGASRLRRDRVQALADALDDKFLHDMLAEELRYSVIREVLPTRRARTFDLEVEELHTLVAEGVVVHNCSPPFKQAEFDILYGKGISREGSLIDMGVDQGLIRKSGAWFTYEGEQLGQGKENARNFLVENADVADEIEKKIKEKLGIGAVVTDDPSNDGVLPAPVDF
The experiment is described as follows: Fluorescence Cell-Free Homogeneous Dose Retest to Identify Inhibitors of RecA-Intein Splicing Activity. [Related pubchem assays (depositor defined):AID2097, AID2223, AID489010, AID492950]. Type of experiment: functional.

Experiment [5] has as its system Streptococcus. Kind of experiment: Group A Streptococcus viability loss, dose response, counter-screen for streptokinase expression inhibitor project, luminescence, BacTiterGlo (AID 1915).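 Also: potency for reduction of bacterial viability or growth.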 Type of experiment: functional, organism-based.
Experiment [6] can be described thus: inhibitors of SNCA 5'UTR-driven reporter translation, confirmation, H4 neuroglioma cells, luminescence (AID 1988). Type of experiment: functional, cell-based.
Experiment [7] has as its system Streptococcus sp. 'group A'. Kind of experiment: growth inhibition of control SK(-) GAS strain, dose response, counter-screen for streptokinase expression inhibitor project, luminescence, kanamycin, BacTiterGlo, confirmation (AID 1900). Type of experiment: functional, organism-based.
Experiment [8] is described as follows: growth suppression of beta-catenin-knockout colon cells, dose response, cell-based, HCT116, human colon tumor (AID 1045).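 Also: HCT116 colon tumor cells with beta catenin knocked out; cells exposed to compound for 60 hours.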 Type of experiment: functional.
Experiment [9] is described as follows: Luminescence Cell-Based Dose Response HTS to Identify Inhibitors of 5'UTR Stem-Loop Driven Prion Protein mRNA Translation in H4 Neuroglioblastoma Cells. [Related pubchem assays: 1827 (Project Summary), 1813 (Primary HTS)]. Type of experiment: functional.
In experiment [10] the target is T2, Replicative DNA helicase DnaB (Mycobacterium tuberculosis, UniProt P9WMR3).
T2 sequence (P9WMR3 whole entry): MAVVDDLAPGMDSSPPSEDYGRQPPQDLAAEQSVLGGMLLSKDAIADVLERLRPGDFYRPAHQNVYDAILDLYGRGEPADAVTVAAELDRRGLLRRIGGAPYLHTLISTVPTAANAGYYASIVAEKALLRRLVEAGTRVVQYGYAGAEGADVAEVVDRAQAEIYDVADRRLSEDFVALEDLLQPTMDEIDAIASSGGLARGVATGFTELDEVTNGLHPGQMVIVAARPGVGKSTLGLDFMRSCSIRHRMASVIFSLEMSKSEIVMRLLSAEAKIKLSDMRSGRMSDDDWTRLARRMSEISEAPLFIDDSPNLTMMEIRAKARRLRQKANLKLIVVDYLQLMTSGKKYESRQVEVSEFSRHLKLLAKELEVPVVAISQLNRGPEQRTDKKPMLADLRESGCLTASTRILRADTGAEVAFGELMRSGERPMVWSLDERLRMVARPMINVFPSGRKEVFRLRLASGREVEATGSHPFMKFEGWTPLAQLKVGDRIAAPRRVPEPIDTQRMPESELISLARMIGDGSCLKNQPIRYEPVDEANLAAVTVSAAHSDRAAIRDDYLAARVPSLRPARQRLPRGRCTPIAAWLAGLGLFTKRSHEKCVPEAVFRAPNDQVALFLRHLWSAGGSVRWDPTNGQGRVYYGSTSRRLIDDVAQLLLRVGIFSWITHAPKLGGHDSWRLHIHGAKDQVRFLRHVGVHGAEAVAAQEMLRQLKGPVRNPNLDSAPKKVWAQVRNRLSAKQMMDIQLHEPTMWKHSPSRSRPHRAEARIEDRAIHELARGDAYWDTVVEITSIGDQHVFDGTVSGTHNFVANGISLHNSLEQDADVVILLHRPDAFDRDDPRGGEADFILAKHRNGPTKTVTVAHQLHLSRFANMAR
Kind of experiment: DnaB intein splicing inhibitors, dose response, biochemical, cell-free fluorescence (AID 449749). It counts as functional.

Experiment [11] relates to INS1. Kind of experiment: beta cell apoptosis inhibitors, cytokine rescue, dose response, luminescence, retest (AID 449756).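 Also: cell death triggered by IL-1 beta plus TNF-alpha plus IFN-gamma mixture; protective hits raise ATP signal compared with cytokine alone wells.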 It counts as functional, cell-based. The note with it: Rattus norvegicus.
Experiment [12] deals with T3, Mannose-6-phosphate isomerase (Homo sapiens, UniProt P34949).
T3 sequence (P34949 whole entry): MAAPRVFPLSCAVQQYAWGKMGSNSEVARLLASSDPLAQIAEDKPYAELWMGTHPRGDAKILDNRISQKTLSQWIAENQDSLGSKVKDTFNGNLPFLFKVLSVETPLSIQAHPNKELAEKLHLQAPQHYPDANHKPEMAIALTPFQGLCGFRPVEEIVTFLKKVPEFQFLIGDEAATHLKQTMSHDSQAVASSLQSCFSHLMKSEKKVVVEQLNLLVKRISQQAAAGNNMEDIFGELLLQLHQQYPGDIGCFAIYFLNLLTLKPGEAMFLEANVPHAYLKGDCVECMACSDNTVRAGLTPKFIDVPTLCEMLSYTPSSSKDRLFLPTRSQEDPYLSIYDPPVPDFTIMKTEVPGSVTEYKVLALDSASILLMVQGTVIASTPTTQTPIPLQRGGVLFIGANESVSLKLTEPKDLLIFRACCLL
The experiment is described as follows: human PMI inhibitors, high substrate, primary screen, biochemical, fluorescence intensity, high mannose 6-phosphate (AID 1220).

The target in experiment [13] is T4, Streptokinase A (Streptococcus pyogenes serotype M1, UniProt P10520).
T4 sequence (P10520 whole entry): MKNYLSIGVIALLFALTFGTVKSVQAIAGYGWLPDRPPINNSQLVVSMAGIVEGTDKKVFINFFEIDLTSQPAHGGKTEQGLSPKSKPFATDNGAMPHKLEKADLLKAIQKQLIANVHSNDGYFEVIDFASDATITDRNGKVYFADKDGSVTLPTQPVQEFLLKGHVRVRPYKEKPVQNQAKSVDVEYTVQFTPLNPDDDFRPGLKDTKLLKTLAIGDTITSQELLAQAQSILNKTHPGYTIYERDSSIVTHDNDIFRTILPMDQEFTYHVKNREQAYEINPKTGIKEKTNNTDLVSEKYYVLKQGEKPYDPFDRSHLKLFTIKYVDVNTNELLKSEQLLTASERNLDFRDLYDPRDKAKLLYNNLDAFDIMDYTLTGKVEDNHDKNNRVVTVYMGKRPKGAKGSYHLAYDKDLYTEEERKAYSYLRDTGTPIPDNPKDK
Kind of experiment: S. pyogenes streptokinase expression inhibitors, potency, dose response, plasminogen activation absorbance, OD405 (AID 1914).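 Also: secreted streptokinase activity via plasminogen activation per viability signal from cell pellet.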 It counts as functional, Streptococcus pyogenes M1 GAS.

Experiment [14] can be described thus: growth suppression of PTEN-null colon cells, dose response, cell-based, HCT116 PTEN knockout (AID 1047).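 Also: HCT116 colon tumor cells with PTEN knocked out; cells exposed to compound for 60 hours before readout; potency for loss of cell viability measured by luminescence.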 It counts as functional.
Experiment [15] is described as follows: NIH-3T3 fibroblast cytotoxicity, dose response, cytotoxicity control, cell-based, fluorescence, Alamar Blue, secondary assay (AID 2327).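 Also: NIH-3T3 mouse fibroblasts cultured with fluconazole at 8 µg/mL.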 It counts as functional.
A short description of experiment [16]: Counterscreen for IDE inhibitors: Luminescence-based cell-based high throughput dose response assay to identify compounds that are cytotoxic to HEK cells. [Related pubchem assays: 434962 (Primary screen (IDE inhibitors in singlicate)), 449730 (Counterscreen (Cytotoxicity in triplicate)), 435028 (Confirmation (IDE inhibitors in triplicate)) …. It counts as functional. The following applies: HEK293.

Experiment [17] deals with T5, Insulin-degrading enzyme (Homo sapiens, UniProt P14735).
T5 sequence (P14735 whole entry): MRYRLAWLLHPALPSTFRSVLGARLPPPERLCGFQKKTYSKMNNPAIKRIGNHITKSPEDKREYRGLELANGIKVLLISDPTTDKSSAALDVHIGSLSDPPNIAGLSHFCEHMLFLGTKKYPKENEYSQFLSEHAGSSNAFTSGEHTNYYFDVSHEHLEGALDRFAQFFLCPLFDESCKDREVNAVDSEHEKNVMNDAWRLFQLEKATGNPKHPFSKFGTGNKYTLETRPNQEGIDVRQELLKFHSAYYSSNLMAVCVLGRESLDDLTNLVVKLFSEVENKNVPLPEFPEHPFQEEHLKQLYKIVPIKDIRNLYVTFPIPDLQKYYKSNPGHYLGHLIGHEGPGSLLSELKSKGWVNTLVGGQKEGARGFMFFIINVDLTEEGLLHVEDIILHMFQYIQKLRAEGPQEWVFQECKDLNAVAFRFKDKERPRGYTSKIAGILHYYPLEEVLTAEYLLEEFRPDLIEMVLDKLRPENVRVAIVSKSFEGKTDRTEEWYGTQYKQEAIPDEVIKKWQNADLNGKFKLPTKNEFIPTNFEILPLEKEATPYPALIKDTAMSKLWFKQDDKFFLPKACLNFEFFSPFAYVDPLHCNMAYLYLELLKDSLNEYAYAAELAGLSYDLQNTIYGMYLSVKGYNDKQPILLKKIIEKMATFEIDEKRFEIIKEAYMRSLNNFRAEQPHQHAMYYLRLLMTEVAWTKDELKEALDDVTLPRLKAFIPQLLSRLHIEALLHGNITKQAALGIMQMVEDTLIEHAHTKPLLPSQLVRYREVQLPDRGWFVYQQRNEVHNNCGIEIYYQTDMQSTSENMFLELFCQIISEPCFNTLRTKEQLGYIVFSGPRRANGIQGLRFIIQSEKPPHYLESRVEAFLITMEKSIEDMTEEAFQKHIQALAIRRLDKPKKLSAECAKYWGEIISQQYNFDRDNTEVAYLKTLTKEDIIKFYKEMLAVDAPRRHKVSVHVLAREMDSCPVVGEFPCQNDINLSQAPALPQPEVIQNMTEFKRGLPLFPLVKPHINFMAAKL
Kind of experiment: Dose Response: Fluorescence polarization-based cell-based high throughput dose response assay for inhibitors of insulin-degrading enzyme (IDE). [Related pubchem assays: 434962 (Primary screen (IDE inhibitors in singlicate)), 449730 (Counterscreen (Cytotoxicity in triplicate)), 435028 (Confirmation (IDE inhibitors in triplicate)), 434984 (Summary …. Type of experiment: functional.

The source made the active and inactive calls. Rule as the data show it, for most assays here: actives have a measured EC50 and inactives only a lower limit.

In the case of `C/N=C1\C(=O)c2ccccc2C(O)=C1N(C(C)=O)c1ccc(Br)cc1`, the EC50 (as a rule, the midpoint of the concentration-response curve) in experiment [1] is 0.242 µM (active); in [2], 2.38 µM (active); in [4], 0.795 µM (active); in [5] it was > 150 µM (not active); in [6] it was 8.7 µM (active); in experiment [7], 6.44 µM (active). In addition, the EC50 is 0.594 µM (active) in [8]; 11.4 µM (active) in experiment [9]; 23.9 µM (active) in experiment [13]; 0.688 µM (active) in experiment [14]; 3.59 µM (inconclusive) in [15]. Also, the results for the concentration for half-maximal inhibition (IC50) in [3] and in experiment [12] were 5.7 µM (active) and > 50 µM (not active), respectively. For the same compound, the AC50 (as a rule, the concentration giving half of the maximal activity seen) in experiment [10] was 11.3 µM (active); in experiment [11], 0.548 µM (active).
Turning to `Cc1ccc(NC(=O)CSc2nnc(CN3CCOCC3)n2C)cc1C`, the IC50 (as a rule, the point on the concentration scale where inhibition reaches its midpoint) is listed as > 55.7 µM (not active) in experiment [16] and > 55.9 µM (not active) in experiment [17].
